For experiment [1], the target named is T1, JAK3 (Homo sapiens, UniProt P52333).
T1 sequence (P52333 1-1124): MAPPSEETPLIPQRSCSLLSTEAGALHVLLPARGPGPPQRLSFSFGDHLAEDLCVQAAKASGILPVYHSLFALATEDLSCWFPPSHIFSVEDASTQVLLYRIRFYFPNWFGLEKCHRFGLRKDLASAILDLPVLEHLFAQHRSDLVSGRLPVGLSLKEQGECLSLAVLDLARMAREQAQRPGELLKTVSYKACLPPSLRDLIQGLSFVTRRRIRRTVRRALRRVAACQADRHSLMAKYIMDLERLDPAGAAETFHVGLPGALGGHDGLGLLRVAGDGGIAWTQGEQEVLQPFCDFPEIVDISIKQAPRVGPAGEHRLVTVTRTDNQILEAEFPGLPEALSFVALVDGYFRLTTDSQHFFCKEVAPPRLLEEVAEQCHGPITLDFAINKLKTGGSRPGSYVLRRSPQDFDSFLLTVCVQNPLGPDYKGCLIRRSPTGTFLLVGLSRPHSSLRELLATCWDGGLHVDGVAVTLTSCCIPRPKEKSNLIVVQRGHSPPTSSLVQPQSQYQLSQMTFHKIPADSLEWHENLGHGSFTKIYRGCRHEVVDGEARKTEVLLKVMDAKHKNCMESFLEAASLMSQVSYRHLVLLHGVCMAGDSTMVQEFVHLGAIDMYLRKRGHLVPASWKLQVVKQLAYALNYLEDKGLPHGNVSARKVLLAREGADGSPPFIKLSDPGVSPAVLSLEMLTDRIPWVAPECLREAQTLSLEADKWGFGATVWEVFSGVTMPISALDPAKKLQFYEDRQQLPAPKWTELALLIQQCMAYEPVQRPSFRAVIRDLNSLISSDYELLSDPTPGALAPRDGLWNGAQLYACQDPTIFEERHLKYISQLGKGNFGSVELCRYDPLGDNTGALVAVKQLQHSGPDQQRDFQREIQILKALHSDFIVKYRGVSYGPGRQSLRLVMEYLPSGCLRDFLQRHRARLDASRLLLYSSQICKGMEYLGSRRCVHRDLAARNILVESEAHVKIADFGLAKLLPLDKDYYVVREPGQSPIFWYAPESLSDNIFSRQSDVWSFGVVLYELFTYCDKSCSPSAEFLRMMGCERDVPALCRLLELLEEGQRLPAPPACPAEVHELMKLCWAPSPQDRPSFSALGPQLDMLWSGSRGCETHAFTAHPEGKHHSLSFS
Nature of the experiment: Inhibition of a panel of kinases, in vitro HotSpot kinase assay: JAK3. Format: biochemical. To be noted: read-out: IC50 JAK3.

Experiment [2] has as its target T2, ITK (Homo sapiens, UniProt Q08881).
T2 sequence (Q08881 1-620): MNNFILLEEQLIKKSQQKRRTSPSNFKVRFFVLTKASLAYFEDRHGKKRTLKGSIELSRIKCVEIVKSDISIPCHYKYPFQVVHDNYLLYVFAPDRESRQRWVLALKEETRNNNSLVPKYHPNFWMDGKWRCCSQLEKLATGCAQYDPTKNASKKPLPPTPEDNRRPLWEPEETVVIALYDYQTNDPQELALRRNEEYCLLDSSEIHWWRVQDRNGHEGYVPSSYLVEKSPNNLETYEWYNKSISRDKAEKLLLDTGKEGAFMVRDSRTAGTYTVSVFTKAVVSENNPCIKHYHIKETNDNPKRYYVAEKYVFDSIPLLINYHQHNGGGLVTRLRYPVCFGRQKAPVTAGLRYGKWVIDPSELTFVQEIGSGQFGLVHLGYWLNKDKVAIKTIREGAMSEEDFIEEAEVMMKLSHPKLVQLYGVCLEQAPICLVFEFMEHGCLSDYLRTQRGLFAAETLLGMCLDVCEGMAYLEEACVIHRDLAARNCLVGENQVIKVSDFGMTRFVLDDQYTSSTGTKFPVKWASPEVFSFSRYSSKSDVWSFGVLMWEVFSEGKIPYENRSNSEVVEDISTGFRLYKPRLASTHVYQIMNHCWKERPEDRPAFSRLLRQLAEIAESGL
Description: Inhibition of a panel of kinases, in vitro HotSpot kinase assay: ITK. Type of experiment: biochemical. Here is the method:
The degree of inhibition of a panel of kinases is determined using the in vitro HotSpot kinase assay (purified enzymes, ^33P-ATP, an appropriate substrate and 1 μM ATP).

The mark [3] stands for this setting: D-compounds panel data, 1 μM ATP.

Molecules are shown by their SMILES. Read-outs that look alike come from different tables or passages of the source.

IC50 data for 18 molecules are collected here from patent US20210070748A1, “INHIBITORS OF BRUTONS TYROSINE KINASE” (Pharmacyclics LLC, priority 2015, published 2021).

On to `CN(C)C(=O)N[C@H]1CCCN(c2cnc(C(N)=O)c(Nc3ccc(C4(C)CCN(C5CCCC5)CC4)cc3)n2)[C@H]1CO` [Example D-59, 3-{[4-(1-cyclopentyl-4-methylpiperidin-4-yl)phenyl]amino}-5-[(2R,3S)-3-[(dimethylcarbamoyl)amino]-2-(hydroxymethyl)piperidin-1-yl]pyrazine-2-carboxamide], for which the IC50 in experiment [1] (setting [3]) is > 10000 nM; in experiment [2] (setting [3]), 1000 to 10000 nM.
Take `C=CC(=O)N1CC[C@@H](N(C)c2cnc(C(N)=O)c(Nc3ccc(C4(C)CCN(C5CCCC5)CC4)cc3)n2)C1` [Example E-106, (R)-5-((1-acryloylpyrrolidin-3-yl)(methyl)amino)-3-(4-(1-cyclopentyl-4-methylpiperidin-4-yl)phenylamino)pyrazine-2-carboxamide]: the IC50 was < 10 nM in experiment [1] (E compounds, Table 17) and ≤ 10 nM in experiment [2] (E compounds, Table 17).
As to `C[C@@H]1[C@H](NC(=O)c2ccc(C3CC3)cc2F)CCCN1c1cnc(C(N)=O)c(Nc2ccc(N3CCOCC3)cc2)n1` [Example D-73, 5-[(2R,3R)-3-(4-cyclopropyl-2-fluorobenzamido)-2-methylpiperidin-1-yl]-3-{[4-(morpholin-4-yl)phenyl]amino}pyrazine-2-carboxamide], the 50% inhibitory concentration (IC50) in experiment [1] (setting [3]) was > 10000 nM; in experiment [2] (setting [3]), 100 to 1000 nM.
Turning to `C[C@@H]1[C@H](NC(=O)c2ccc(C3CC3)cc2F)CCCN1c1cnc(C(N)=O)c(Nc2cnn(C)c2)n1` [Example D-1, 5-[(2R,3R)-3-(4-cyclopropyl-2-fluorobenzamido)-2-methylpiperidin-1-yl]-3-[(1-methyl-1H-pyrazol-4-yl)amino]pyrazine-2-carboxamide], the values for the concentration for half-maximal inhibition (IC50) in experiment [1] (setting [3]) and in experiment [2] (setting [3]) were 1000 to 10000 nM and 100 to 1000 nM, respectively.
As for `C[C@@H]1[C@H](N2CCN(C)C2=O)CCCN1c1cnc(C(N)=O)c(Nc2cnn(C)c2)n1` [Example D-93, 3-[(1-methyl-1H-pyrazol-4-yl)amino]-5-[(2R,3R)-2-methyl-3-(3-methyl-2-oxoimidazolidin-1-yl)piperidin-1-yl]pyrazine-2-carboxamide], the IC50 in experiment [1] (setting [3]) and in experiment [2] (setting [3]) was 100 to 1000 nM in each case.
As to `C[C@@H]1[C@H](NC(=O)c2ccc(C3CC3)cc2)CCCN1c1cnc(C(N)=O)c(Nc2ccc(OC3CCN(C)CC3)cc2)n1` [Example D-89], the IC50 in experiment [1] (setting [3]) and in experiment [2] (setting [3]) was 100 to 1000 nM each time.
As to `CN(C)C(=O)N[C@H]1CCCN(c2cnc(C(N)=O)c(Nc3ccc4ncccc4c3)n2)[C@@H]1CO` (racemic) [Example D-64, trans 5-[3-[(dimethylcarbamoyl)amino]-2-(hydroxymethyl)piperidin-1-yl]-3-[(quinolin-6-yl)amino]pyrazine-2-carboxamide], the half-inhibitory concentration (IC50) in experiment [1] (setting [3]) and in experiment [2] (setting [3]) was > 10000 nM each time.
As to `Cn1cc(Nc2nc(N3CCC[C@@H]4[C@H]3CCN4C(=O)c3ccccc3)cnc2C(N)=O)cn1` (racemic) [Example D-54, (racemic)-cis-5-{1-benzoyl-octahydro-1H-pyrrolo[3,2-b]pyridin-4-yl}-3-[(1-methyl-1H-pyrazol-4-yl)amino]pyrazine-2-carboxamide], the 50% inhibitory concentration (IC50) in experiment [1] (setting [3]) and in experiment [2] (setting [3]) was 1000 to 10000 nM throughout.
As to `Cc1cc(Nc2nc(N3C[C@H](NC(=O)c4ccc(C5CC5)cc4F)CC[C@H]3C)cnc2C(N)=O)sn1` [Example D-79, 5-[(2R,5R)-5-(4-cyclopropyl-2-fluorobenzamido)-2-methylpiperidin-1-yl]-3-[(3-methyl-1,2-thiazol-5-yl)amino]pyrazine-2-carboxamide], the IC50 in experiment [1] (setting [3]) was 1000 to 10000 nM; in experiment [2] (setting [3]) it was > 10000 nM.
Regarding `Cc1cc(Nc2nc(N3C[C@H](NC(=O)N(C)C)CC[C@@H]3C)cnc2C(N)=O)sn1` [Example D-74, 5-[(2S,5R)-5-[(dimethylcarbamoyl)amino]-2-methylpiperidin-1-yl]-3-[(3-methyl-1,2-thiazol-5-yl)amino]pyrazine-2-carboxamide], the half-inhibitory concentration (IC50) is 100 to 1000 nM in experiment [1] (setting [3]) and > 10000 nM in experiment [2] (setting [3]).
For `NC(=O)c1ncc(N2CCC[C@@H](NC(=O)c3ccc(C4CC4)cc3F)C2)nc1Nc1cc(-c2ccccc2)ns1` [Example D-3, 5-[(3R)-3-(4-cyclopropyl-2-fluorobenzamido)piperidin-1-yl]-3-[(3-phenyl-1,2-thiazol-5-yl)amino]pyrazine-2-carboxamide], in that order: > 10000 nM and > 10000 nM.
For `C[C@@H]1[C@H](NC(=O)c2ccc(C3CC3)cc2)CCCN1c1cnc(C(N)=O)c(Nc2ccc(CN3CCOCC3)cc2)n1` [Example D-316, 5-[(2R,3R)-3-(4-cyclopropylbenzamido)-2-methylpiperidin-1-yl]-3-{[4-(morpholin-4-ylmethyl)phenyl]amino}pyrazine-2-carboxamide], the IC50 in experiment [1] (setting [3]) was 1000 to 10000 nM; in experiment [2] (setting [3]) it was 100 to 1000 nM.
For `C[C@@H]1[C@H](NC(=O)c2ccc(-c3ncccn3)cc2)CCCN1c1cnc(C(N)=O)c(Nc2cnn(C)c2)n1` [Example D-85, 3-[(1-methyl-1H-pyrazol-4-yl)amino]-5-[(2R,3R)-2-methyl-3-[4-(pyrimidin-2-yl)benzamido]piperidin-1-yl]pyrazine-2-carboxamide], in that order: 100 to 1000 nM and 100 to 1000 nM.
In the case of `Cc1cc(Nc2nc(N3C[C@@H](NC(=O)c4ccc(C5CC5)cc4F)CC[C@@H]3C)cnc2C(N)=O)sn1` [Example D-78, 5-[(2S,5S)-5-(4-cyclopropyl-2-fluorobenzamido)-2-methylpiperidin-1-yl]-3-[(3-methyl-1,2-thiazol-5-yl)amino]pyrazine-2-carboxamide], the IC50 in experiment [1] (setting [3]) and in experiment [2] (setting [3]) was 1000 to 10000 nM throughout.
With `Cc1ncc(Nc2nc(N3CCC[C@@H](NC(=O)c4ccc(C5CC5)cc4F)C3)cnc2C(N)=O)s1` [Example D-4, 5-[(3R)-3-(4-cyclopropyl-2-fluorobenzamido)piperidin-1-yl]-3-[(2-methyl-1,3-thiazol-5-yl)amino]pyrazine-2-carboxamide], the half-maximal inhibitory concentration (IC50) in experiment [1] (setting [3]) and in experiment [2] (setting [3]) was 1000 to 10000 nM each time.
Take `C[C@@H]1[C@H](NC(=O)c2ccc(C3CC3)cc2)CCCN1c1cnc(C(N)=O)c(Nc2ccc(C3CCOCC3)cc2)n1` [Example D-317, 5-[(2R,3R)-3-(4-cyclopropylbenzamido)-2-methylpiperidin-1-yl]-3-{[4-(oxan-4-yl)phenyl]amino}pyrazine-2-carboxamide]: the IC50 is 1000 to 10000 nM in experiment [1] (setting [3]) and > 10000 nM in experiment [2] (setting [3]).
Take `Cn1cc(Nc2nc(N3CCC(NC(=O)c4ccc(C5CC5)cc4)C(O)C3)cnc2C(N)=O)cn1` (single isomer, unassigned) [Example D-29, Trans-5-[4-(4-cyclopropylbenzamido)-3-hydroxypiperidin-1-yl]-3-[(1-methyl-1H-pyrazol-4-yl)amino]pyrazine-2-carboxamide]: the IC50 in experiment [1] (setting [3]) was > 10000 nM; in experiment [2] (setting [3]) it was 1000 to 10000 nM.
As for `CN1CCN(C(=O)c2ccc(Nc3nc(N[C@H]4CC[C@H](NC(=O)c5ccc(C6CC6)cc5F)CC4)cnc3C(N)=O)cc2)CC1` [Example D-70, 3-{[4-(4-methylpiperazine-1-carbonyl)phenyl]amino}-5-{[(1 r,4r)-4-(4-cyclopropyl-2-fluorobenzamido)cyclohexyl]amino}pyrazine-2-carboxamide], the concentration for half-maximal inhibition (IC50) in experiment [1] (setting [3]) and in experiment [2] (setting [3]) was 100 to 1000 nM throughout.

As a reminder, the IC50 is the midpoint of a concentration-inhibition curve.
